In brackets after ≈: the same amount, converted by molar mass. Activity calls are given as the source filed them. The rule behind the calls is not given here.
Columns and labels:
[1] = tested on: Mycobacterium tuberculosis; assay: Antibacterial activity against Mycobacterium tuberculosis H37Rv after 1 week by MABA; assay type: functional; conditions: 168 h
[2] = Cytotoxicity against mouse RAW264.7 cells assessed as growth inhibition at 25 uM after 48 hrs by MTT assay relative to control; assay type: cell-based; conditions: read-out: GI
[3] = tested on: Mycobacterium tuberculosis; assay: Antibacterial activity against Mycobacterium tuberculosis H37Rv after 1 week in presence of efflux pump inhibitor verapamil by MABA; assay type: functional; conditions: 168 h
[4] = tested on: Mycobacterium tuberculosis; assay: Antibacterial activity against Mycobacterium tuberculosis H37Rv after 1 week in presence of efflux pump inhibitor piperine by MABA; assay type: functional; conditions: 168 h
[5] = tested on: Mycobacterium tuberculosis; assay: Antibiofilm activity against Mycobacterium tuberculosis H37Rv at 10 ug/ml after 1 week; assay type: functional
[6] = tested on: Mycobacterium tuberculosis; assay: Antibacterial activity against non replicating Mycobacterium tuberculosis H37Rv assessed as log reduction in bacterial count at 10 ug/ml incubated for 7 days followed by compound dilution measured after 4 weeks; assay type: functional
[7] = tested on: Mycobacterium tuberculosis; assay: Bacteriostatic activity against Mycobacterium tuberculosis H37Rv at 5 to 20 uM incubated up to 21 days; assay type: functional, organism-based
[8] = tested on: Mycobacterium tuberculosis; assay: Ratio of MBC to MIC for Mycobacterium tuberculosis H37Rv; assay type: functional
Mycobacterium marinum [9] = assay: Antibacterial activity against Mycobacterium marinum ATCC BAA-535 infected in zebra fish assessed as log reduction in bacterial load at 5 mg/kg, po for 7 days; assay type: functional
[10] = tested on: Mycobacterium tuberculosis; assay: Bacteriostatic activity against Mycobacterium tuberculosis H37Rv assessed as reduction in bacterial count at 25 uM incubated up to 21 days relative to control; assay type: functional
[11] = tested on: Mycobacterium tuberculosis; assay: Bactericidal activity against Mycobacterium tuberculosis H37Rv incubated up to 21 days; assay type: functional, organism-based
[12] = target: T1, Glutamate racemase (Mycobacterium tuberculosis (strain ATCC 25618 / H37Rv)) (UniProt P9WPW9); assay: Binding affinity to Mycobacterium tuberculosis glutamate racemase assessed as change in melting temperature by SYPRO orange dye based fluorescence assay
T1 sequence (whole entry): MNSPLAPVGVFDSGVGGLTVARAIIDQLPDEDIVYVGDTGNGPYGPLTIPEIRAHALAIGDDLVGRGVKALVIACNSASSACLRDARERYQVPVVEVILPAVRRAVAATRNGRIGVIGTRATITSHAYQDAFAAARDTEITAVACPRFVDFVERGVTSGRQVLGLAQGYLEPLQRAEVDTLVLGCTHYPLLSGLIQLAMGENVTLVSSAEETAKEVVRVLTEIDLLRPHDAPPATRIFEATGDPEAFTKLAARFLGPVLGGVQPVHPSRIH

[13] = target: T1, Glutamate racemase (Mycobacterium tuberculosis (strain ATCC 25618 / H37Rv)); assay: Non-competitive inhibition of Mycobacterium tuberculosis glutamate racemase assessed as change in melting temperature by SYPRO orange dye based fluorescence assay
Mycobacterium marinum [14] = assay: Antibacterial activity against Mycobacterium marinum ATCC BAA-535 infected in zebra fish assessed as log reduction in bacterial load at 10 mg/kg, po for 7 days; assay type: functional
[15] = target: T1, Glutamate racemase (Mycobacterium tuberculosis (strain ATCC 25618 / H37Rv)); assay: Non-competitive inhibition of Mycobacterium tuberculosis glutamate racemase assessed as change in melting temperature in presence of substrate D-glutamate by SYPRO orange dye based fluorescence assay

Compound	MIC [1]	inhibition at 48 h, 25 µM [2]	MIC [3]	MIC [4]	other results
S=C(Nc1ccccc1)Nc1cccc(-c2nc3ccccc3s2)c1	69.2 µM (≈ 25 µg/mL)	2.35%			
O=[N+]([O-])c1ccc(NC(=S)Nc2cccc(-c3nc4cc(C(F)(F)F)ccc4s3)c2)cc1	52.7 µM (≈ 25 µg/mL)	18.4%	3.34 µM	52.7 µM	
COc1ccc(NC(=O)Nc2cccc(-c3nc4cc(C(F)(F)F)ccc4s3)c2)cc1	56.4 µM (≈ 25 µg/mL)	59.1%			
COc1ccc(NC(=O)Nc2cccc(-c3nc4ccccc4s3)c2)cc1	33.3 µM (≈ 12.5 µg/mL)	56.1%			
O=C(Nc1ccc(Cl)cc1)Nc1cccc(-c2nc3ccccc3s2)c1	65.9 µM (≈ 25 µg/mL)	30.1%			
O=C(Nc1ccc([N+](=O)[O-])cc1)Nc1cccc(-c2nc3cc(C(F)(F)F)ccc3s2)c1	54.7 µM (≈ 25.1 µg/mL)	99.2%			
Cc1ccc(NC(=O)Nc2cccc(-c3nc4cc(C(F)(F)F)ccc4s3)c2)cc1	58.6 µM (≈ 25 µg/mL)	22.5%			
Fc1ccc(NC(=S)Nc2cccc(-c3nc4ccccc4s3)c2)cc1	2.15 µM (≈ 0.816 µg/mL)	98.2%	2.15 µM	2.15 µM	
O=C(Nc1ccccc1)Nc1cccc(-c2nc3ccccc3s2)c1	72.9 µM (≈ 25.2 µg/mL)	97.2%			
O=C(Nc1ccc(Cl)cc1)Nc1cccc(-c2nc3cc(C(F)(F)F)ccc3s2)c1	55.9 µM (≈ 25 µg/mL)	45.7%			
FC(F)(F)c1ccc2sc(-c3cccc(NC(=S)NCc4ccccc4)c3)nc2c1	14.7 µM (≈ 6.52 µg/mL)	96.1%			log(activity) [5]: 1.8; log(activity) [6]: 2.1; Activity [7]: Active; Ratio [8]: >4
NNC(=O)c1ccncc1 [ISONIAZID]	0.72 µM (≈ 0.0987 µg/mL)		0.72 µM	0.72 µM	log(activity) [5]: 1; log(activity) [6]: 1.1; log(activity) (Mycobacterium marinum [9]): 2.6
S=C(Nc1ccc(Cl)cc1)Nc1cccc(-c2nc3ccccc3s2)c1	2.09 µM (≈ 0.828 µg/mL)	58.4%			
O=C(Nc1ccc([N+](=O)[O-])cc1)Nc1cccc(-c2nc3ccccc3s2)c1	8.09 µM (≈ 3.16 µg/mL)	42.1%	2.04 µM	8.09 µM	log(activity) [5]: 0.7; log(activity) [6]: 2.1; fold change (FC) [10]: >3; Ratio [8]: <4; Activity [11]: Dose-dependent effect
Fc1ccc(NC(=S)Nc2cccc(-c3nc4cc(C(F)(F)F)ccc4s3)c2)cc1	27.9 µM (≈ 12.5 µg/mL)	76.3%	7.01 µM	27.9 µM	log(activity) [6]: 2.1; Activity [7]: Active; Ratio [8]: >4
O=C(Nc1ccc(F)cc1)Nc1cccc(-c2nc3ccccc3s2)c1					ΔTm [12]: 3.3 °C
O=[N+]([O-])c1ccc(NC(=S)Nc2cccc(-c3nc4ccccc4s3)c2)cc1	61.6 µM (≈ 25 µg/mL)	98.2%			
FC(F)(F)c1ccc2sc(-c3cccc(NC(=S)Nc4ccccc4)c3)nc2c1	14.7 µM (≈ 6.3 µg/mL)	28.1%	1.84 µM	14.6 µM	
O=C(Nc1ccc(F)cc1)Nc1cccc(-c2nc3cc(C(F)(F)F)ccc3s2)c1	57.9 µM (≈ 25 µg/mL)	97.7%			
Cc1ccc(NC(=S)Nc2cccc(-c3nc4ccccc4s3)c2)cc1	16.6 µM (≈ 6.24 µg/mL)	17.5%	8.29 µM	16.6 µM	log(activity) [5]: 2; log(activity) [6]: 2.1; ΔTm [13]: 3.9 °C; log(activity) (Mycobacterium marinum [14]): 3.5; Activity [7]: Active; ΔTm [15]: 4.7 °C; Ratio [8]: >4
Cc1ccc(NC(=S)Nc2cccc(-c3nc4cc(C(F)(F)F)ccc4s3)c2)cc1	28.3 µM (≈ 12.5 µg/mL)	97.1%			
COc1c(N2C[C@@H]3CCCN[C@@H]3C2)c(F)cc2c(=O)c(C(=O)O)cn(C3CC3)c12 [MOXIFLOXACIN]					log(activity) [5]: 1.8; Activity [6]: Active; log(activity) (Mycobacterium marinum [14]): 2.5
N[C@H](CCC(=O)O)C(=O)O					ΔTm [12]: 2.4 °C
FC(F)(F)c1ccc2sc(-c3cccc(NC(=S)Nc4ccc(Cl)cc4)c3)nc2c1	53.9 µM (≈ 25 µg/mL)	97.3%			
CO[C@H]1/C=C/O[C@@]2(C)Oc3c(C)c(O)c4c(O)c(c(/C=N/N5CCN(C)CC5)c(O)c4c3C2=O)NC(=O)/C(C)=C\C=C\[C@H](C)[C@H](O)[C@@H](C)[C@@H](O)[C@@H](C)[C@H](OC(C)=O)[C@@H]1C [RIFAMPIN]	0.15 µM (≈ 0.123 µg/mL)		0.15 µM	0.15 µM	log(activity) [5]: 1.2; log(activity) [6]: 0.5
CC[C@@H](CO)NCCN[C@@H](CC)CO [ETHAMBUTOL]	7.64 µM (≈ 1.56 µg/mL)		3.82 µM	3.82 µM	
O=C(Nc1ccccc1)Nc1cccc(-c2nc3cc(C(F)(F)F)ccc3s2)c1	3.76 µM (≈ 1.55 µg/mL)	40%			
Cc1ccc(NC(=O)Nc2cccc(-c3nc4ccccc4s3)c2)cc1	69.7 µM (≈ 25 µg/mL)	31.2%	2.17 µM	69.7 µM	
S=C(NCc1ccccc1)Nc1cccc(-c2nc3ccccc3s2)c1	66.6 µM (≈ 25 µg/mL)	32.2%	2.12 µM	66.6 µM	

Source: ChEMBL document CHEMBL4184184, “Lead identification and optimization of bacterial glutamate racemase inhibitors” (Bioorg Med Chem, 2018)
